Patent US11634393B2, “Substituted tolyl fungicides” (FMC CORPORATION, priority 2018, dated 2023)

What was measured:
[1] = tested on: Blumeria graminis f. sp. tritici; test: Test C: wheat powdery mildew, spray on wheat seedlings, disease control rating; assay type: in vivo; conditions: 192 h, 100 = 100% disease control, 0 = no disease control relative to the controls; for pest or weed control at 10 ppm: Rate 10 ppm
Excerpt: (§1) General protocol for preparing test suspensions for Tests A-F: the test compounds were first dissolved in acetone in an amount equal to 3% of the final volume and then suspended at the desired concentration (in ppm) in acetone and purified water (50/50 mix by volume) containing 250 ppm of the surfactant PEG400 (polyhydric alcohol esters). The resulting test suspensions were then used in Tests A-F.
The test suspension was sprayed to the point of run-off on wheat seedlings. The following day the seedlings were inoculated with a spore dust of Blumeria graminis f. sp. tritici, (also known as Erysiphe graminis f. sp. tritici, the causal agent of wheat powdery mildew) and incubated in a growth chamber at 20° C. for 8 days, after which time visual disease ratings were made.
(§2) A rating of 100 indicates 100% disease control and a rating of 0 indicates no disease control (relative to the controls). A dash (-) indicates the compound was not tested.

[2] = tested on: Puccinia recondita f. sp. tritici; test: Test B: wheat leaf rust, spray on wheat seedlings, disease control rating; assay type: in vivo; conditions: Puccinia recondita, 192 h, 100 = 100% disease control, 0 = no disease control relative to the controls; for pest or weed control at 10 ppm: Rate 10 ppm
Outline: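 Compound in acetone (3% of final volume) was suspended at the stated ppm in acetone/water 50/50 with 250 ppm PEG400 and sprayed to run-off on wheat seedlings. Puccinia recondita spores were inoculated next day, then 24 h saturated atmosphere at 20 °C and 7 days at 20 °C. Rated 0–100% disease control versus controls.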

[3] = tested on: Phakopsora pachyrhizi; test: Test D: Asian soybean rust, spray on soybean seedlings, disease control rating; assay type: in vivo; conditions: Phakopsora pachyrhizi, 216 h, 100 = 100% disease control, 0 = no disease control relative to the controls; for pest or weed control at 10 ppm: Rate 10 ppm
Outline: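 Soybean seedlings sprayed to run-off with compound suspension (ppm, in 50/50 acetone/water with 250 ppm PEG400), inoculated next day with P. pachyrhizi spores, held 24 h saturated at 22°C then 8 days at 22°C. Visual rating 0-100% disease control relative to controls.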

[4] = tested on: Botrytis cinerea; test: Test E: tomato Botrytis, spray on tomato seedlings, disease control rating; assay type: in vivo; conditions: 100 = 100% disease control, 0 = no disease control relative to the controls; for pest or weed control at 10 ppm: Rate 10 ppm
Excerpt: as §1
The test suspension was sprayed to the point of run-off on tomato seedlings. The following day the seedlings were inoculated with a spore suspension of Botrytis cinerea (the causal agent of tomato Botrytis) and incubated in a saturated atmosphere at 20° C. for 48 h, and then moved to a growth chamber at 24° C. for 3 days, after which time visual disease ratings were made.
as §2

[5] = tested on: Zymoseptoria tritici; test: Test A: wheat leaf blotch, spray on wheat seedlings, disease control rating; assay type: in vivo; conditions: 100 = 100% disease control, 0 = no disease control relative to the controls; for pest or weed control at 10 ppm: Rate 10 ppm
Excerpt: as §1
The test solution was sprayed to the point of run-off on wheat seedlings. The following day the seedlings were inoculated with a spore suspension of Zymoseptoria tritici (the causal agent of wheat leaf blotch) and incubated in a saturated atmosphere at 24° C. for 48 h, and then moved to a growth chamber at 20° C. for 17 days, after which time disease ratings were made.
as §2

melting point | SMILES | pest or weed control at 10 ppm [2] | pest or weed control at 10 ppm [3] | other results
– | COC(=O)NCc1cc(-c2ccn(-c3c(F)cc([N+](=O)[O-])cc3F)n2)ccc1C [Compound 1, methyl N-[[5-[1-(2,6-difluoro-4-nitrophenyl)-1H-pyrazol-3-yl]-2-methylphenyl]methyl]carbamate] | 68% | 44% | pest or weed control at 10 ppm [1]: 0%; pest or weed control at 10 ppm [4]: 0%; pest or weed control at 10 ppm [5]: 0%
– | COC(=O)NCc1cc(-c2ccn(-c3c(F)cc(OC)cc3F)n2)ccc1C [Compound 3, methyl N-[[5-[1-(2,6-difluoro-4-methoxyphenyl)-1H-pyrazol-3-yl]-2-methylphenyl]methyl]carbamate] | 100% | 100% | pest or weed control at 10 ppm [1]: 79%; pest or weed control at 10 ppm [4]: 45%; pest or weed control at 10 ppm [5]: 50%
118 to 119 °C | CCOc1cc(F)c(-n2ccc(-c3ccc(C)c(CNC(=O)OC)c3)n2)c(F)c1 [Compound 11, methyl N-[[5-[1-(4-ethoxy-2,6-difluorophenyl)-1H-pyrazol-3-yl]-2-methylphenyl]methyl]carbamate] | 100% | 100% | –
126 to 128 °C | COC(=O)NCc1cc(-c2ccn(-c3c(F)cc(OC4CCC4)cc3F)n2)ccc1C [Compound 13, methyl N-[[5-[1-[4-(cyclobutyloxy)-2,6-difluorophenyl]-1H-pyrazol-3-yl]-2-methylphenyl]methyl]carbamate] | 100% | 100% | –
130 to 131 °C | COC(=O)NCc1cc(-c2ccn(-c3c(F)cc(C)cc3F)n2)ccc1C [Compound 30] | 98% | 100% | –
– | COC(=O)NCc1cc(-c2ccn(-c3c(F)cc(C(C)C)cc3F)n2)ccc1C [Compound 63, methyl N-[[5-[1-[2,6-difluoro-4-(1-methylethyl)phenyl]-1H-pyrazol-3-yl]-2-methylphenyl]methyl]carbamate] | 100% | 100% | pest or weed control at 10 ppm [1]: 98%; pest or weed control at 10 ppm [4]: 0%; pest or weed control at 10 ppm [5]: 26%
124 to 128 °C | COC(=O)NCc1cc(-c2ccn(-c3c(F)cc(OC4CC4)cc3F)n2)ccc1C [Compound 66, methyl N-[[5-[1-[4-(cyclopropyloxy)-2,6-difluorophenyl]-1H-pyrazol-3-yl]-2-methylphenyl]methyl]carbamate] | 100% | 100% | –
125 to 129 °C | COC(=O)NCc1cc(-c2cc(C)n(-c3c(F)cccc3F)n2)ccc1C [Compound 100] | 0% | 0% | –
146 to 150 °C | COC(=O)NCc1cc(-c2cc(C)n(-c3c(Cl)cccc3Cl)n2)ccc1C [Compound 101] | 0% | 0% | –
128 to 132 °C | COC(=O)NCc1cc(-c2cc(C)n(-c3c(F)cc(OC)cc3F)n2)ccc1C [Compound 102] | 0% | 0% | –
168 to 172 °C | COC(=O)NCc1cc(-c2ncn(-c3c(F)cc(C(F)(F)F)cc3F)n2)ccc1C [Compound 103] | 100% | 86% | –
175 to 179 °C | COC(=O)NCc1cc(-c2ncn(-c3c(F)cc(Br)cc3F)n2)ccc1C [Compound 104] | 100% | 90% | –
102 to 106 °C | COC(=O)NCc1cc(-c2cnn(-c3c(F)cc(C(C)C)cc3F)n2)ccc1C [Compound 108, methyl N-[[5-[2-[2,6-difluoro-4-(1-methylethyl)phenyl]-2H-1,2,3-triazol-4-yl]-2-methylphenyl]methyl]carbamate] | – | – | pest or weed control at 2 ppm ([2]; Rate 2 ppm): 100%; pest or weed control at 2 ppm ([3]; Rate 2 ppm): 100%
117 to 121 °C | COC(=O)NCc1cc(-c2cnn(-c3c(F)cc(C)cc3F)n2)ccc1C [Compound 111] | 99% | 100% | –
107 to 111 °C | COC(=O)NCc1cc(-c2cnn(-c3c(F)cc(C4CC4)cc3F)n2)ccc1C [Compound 113] | 100% | 100% | –
136 to 140 °C | COC(=O)NCc1cc(-c2cnn(-c3c(F)cc(Br)cc3F)n2)ccc1C [Compound 114] | 100% | 100% | –
154 to 158 °C | COC(=O)NCc1cc(-c2cnn(-c3c(F)cc(I)cc3F)n2)ccc1C [Compound 116] | 100% | 100% | –
– | COC(=O)NCc1cc(-c2cnn(-c3c(F)cc([N+](=O)[O-])cc3F)n2)ccc1C [Compound 118, methyl N-[[5-[2-(2,6-difluoro-4-nitrophenyl)-2H-1,2,3-triazol-4-yl]-2-methylphenyl]methyl]carbamate] | – | – | pest or weed control at 250 ppm ([1]; Rate 250 ppm): 0%; pest or weed control at 250 ppm ([2]; Rate 250 ppm): 0%; pest or weed control at 250 ppm ([3]; Rate 250 ppm): 0%; pest or weed control at 250 ppm ([4]; Rate 250 ppm): 0%; pest or weed control at 250 ppm ([5]; Rate 250 ppm): 1%
143 to 147 °C | COC(=O)NCc1cc(-c2cn(-c3c(F)cc(C)cc3F)nn2)ccc1C [Compound 119] | 100% | 0% | –
145 to 148 °C | COC(=O)NCc1cc(-c2cn(-c3c(Cl)cc(OC)cc3OC)nn2)ccc1C [Compound 120] | 0% | 0% | –
159 to 163 °C | COC(=O)NCc1cc(-c2cn(-c3c(F)cc(Cl)cc3F)nn2)ccc1C [Compound 121, methyl N-[[5-[1-(4-chloro-2,6-difluorophenyl)-1H-1,2,3-triazol-4-yl]-2-methylphenyl]methyl]carbamate] | 68% | 0% | –
148 to 152 °C | COC(=O)NCc1cc(-c2cn(-c3c(Cl)cc(OC)cc3Cl)nn2)ccc1C [Compound 123] | 0% | 0% | –
110 to 114 °C | COC(=O)NCc1cc(-c2cn(-c3c(C)cc(OC)cc3C)nn2)ccc1C [Compound 124] | 0% | 0% | –
166 to 170 °C | COC(=O)NCc1cc(-c2cn(-c3c(F)cc(I)cc3F)nn2)ccc1C [Compound 125] | 68% | 0% | –
160 to 164 °C | COC(=O)NCc1cc(-c2cn(-c3c(F)cc(Br)cc3F)nn2)ccc1C [Compound 126] | 57% | 0% | –
167 to 171 °C | COC(=O)NCc1cc(-c2cn(-c3c(Br)cc(OC)cc3Br)nn2)ccc1C [Compound 128] | 0% | 0% | –
158 to 162 °C | COC(=O)NCc1cc(-c2cn(-c3c(Br)cc(OC)cc3[N+](=O)[O-])nn2)ccc1C [Compound 129] | 0% | 0% | –
146 to 150 °C | COC(=O)NCc1cc(-c2cn(-c3c(F)cc(OC)cc3F)nn2)ccc1C [Compound 130] | 68% | 0% | –
138 to 142 °C | COC(=O)NCc1cc(-c2cnn(-c3c(F)cc(C(F)(F)F)cc3F)n2)ccc1C [Compound 141] | 99% | 100% | –
